Values joined by “and” are separate entries in the source; they are usually repeats but may differ in a detail not shown here. Equal values may be shown once. Read-outs that look alike come from different tables or passages of the source.
Experiments:
[1] = molecular target: HPPD SEQ ID NO:24 (Avena sativa, UniProt A0ACD5V6K6, DEL109-109/L359M); assay: biochemical; type: binding
Description: (§1) On rates (governed by an association rate constant, kon) for the formation of the enzyme: inhibitor complexes, EI and off rates (governed by a dissociation rate constant, koff) were determined by methods known in the art and essentially as described in Hawkes et al. (2001) Proc. Bright. Crop. Prot. Conf. Weeds, 2:563-568 and in PCT Patent App. Pub. No. WO 02/46387).
(§2) For example, on rates were measured by, at zero time, adding ˜60 pmoles HPPD to 50 mM BisTrisPropane buffer at pH7.0 and at 25° C. containing 25 mM Na ascorbate, 4 μg/ml bovine catalase (Sigma, St. Louis, Mo.) and an excess (˜300 pmoles) of ^14C inhibitor in a total assay volume of 425 μl and, at various time points (0-180 s), quenching the radiolabel binding reaction by addition and rapid mixing of 100 μl ‘cold’ 1 mM structure A. Protein samples quenched at different times were then exchanged into 50 mM BisTrisPropane buffer at pH 7.0 containing 0.1M KCl by rapid chromatography down a NAP5 G25 Sephadex column (GE Healthcare Ltd, Buckinghamshire UK) and the amount of ^14C bound to protein fractions quantified in Optiphase scintillant using a Tri-Carb 2900TR scintillation counter (Perkin Elmer, Wellesley, Mass.). The data were fit according to the scheme below in order to derive the value of the apparent second order rate constant, k2, governing the association rate of enzyme and radiolabelled inhibitor. A range of enzyme and inhibitor concentrations were used. […] Further example methods are described in PCT Patent App. Pub. No. WO 02/46387.
(§3) Off rates (k1 in the scheme below) were derived from exchange rate studies where either the test inhibitor, I, or its exchange partner, J were radiolabelled and the data fit according to the scheme below. As noted in Hawkes et al. (2001) Proc. Bright. Crop. Prot. Conf.
(§4) After 30 minutes the exchange reaction was initiated with addition of 100 μl 1 mM ‘cold’ structure A with thorough mixing, and, immediately, 150 μl were withdrawn and loaded onto a NAP5 column, the protein exchanged into 50 mM BisTrisPropane buffer at pH 7.0 containing 0.1M KCl by rapid (<2 min) chromatography down a NAP5 G25 Sephadex column (GE Healthcare Ltd, Buckinghamshire UK) and the amount of ^14C bound to protein measured by Optiphase scintillant using a Tri-Carb 2900TR scintillation counter (Perkin Elmer, Wellesley, Mass.). Further aliquots were removed and measured in the same way at various times over minutes or hours as required in order to determine the exchange kinetics.
(§5) After 30 minutes the reaction vessel was transferred to ice. After a further 10 minutes at ice temperature the exchange reaction was initiated by addition of 100 μl 1 mM Structure A, with thorough mixing, and 150 μl was withdrawn and loaded onto a NAP5 column in a cold room at ˜5-8° C. in order to quantify the amount of radiolabel remaining bound to the protein at various time from the start of exchange at ice temperature.
(§6) Off rates (k1) of HPPD inhibitors that are not available radiolabelled or that present other measurement problems (for example high levels of background non-specific protein-binding which can be measured as radiolabel binding that persists in the presence of high concentrations of ‘cold’ inhibitor) may be measured indirectly. […] Exemplary methods are also described in PCT Patent App. Pub. No. WO 02/46387.

[2] = molecular target: HPPD SEQ ID NO:14 (Avena sativa, UniProt A0ACD5V6K6, DEL109-109); assay: biochemical; type: binding
Description: as §1, §2, §3, §4, §5, §6

[3] = tested on: Jack w/t; assay: herbicide spray test on soybean; type: in vivo; details: V2 growth stage, 14 DAT, average of n=7
Description: (§7) Each data point represents the average damage score from n=7 replicates.
(§8) Plants were in 4×4×4 inch plastic pots and grown under a 15/9 hour light regime (daylight supplemented by artificial light in greenhouses) at a minimum night-time temperature of 18° C. and maximum daytime temperature of 27° C. Soil was regular VBRC mix (1:1 mixture of Vero field soil and Fafard Mix II) where Vero field soil is 98% sand and 2% clay. […] Spray volume was 150 L/ha and the damage scores reflect assessments at 14 DAT.

[4] = tested on: soybean event T0 (vector 17147) expressing SEQ ID NO:24; assay: herbicide spray test on soybean events; type: in vivo; details: event T0/SEQ#24, V2 growth stage, 14 DAT, average of n=7
Excerpt: as §7
(§9) These events were used to compare the performance of five 17147 events. Four of these, SF, S8, S7 and S3 had not been preselected for tolerance level (other than to confirm resistance, non-chimerical nature and the presence of the gene) while the remaining event, T0, had been preselected as the most resistant out of five 17147 events in a preliminary field test.
as §8

[5] = tested on: soybean event S7 (vector 17147) expressing SEQ ID NO:24; assay: herbicide spray test on soybean events; type: in vivo; details: event S7/SEQ#24, V2 growth stage, 14 DAT, average of n=7
Excerpt: as §7, §9, §8

[6] = tested on: soybean event SF (vector 17147) expressing SEQ ID NO:24; assay: herbicide spray test on soybean events; type: in vivo; details: event SF/SEQ#24, V2 growth stage, 14 DAT, average of n=7
Excerpt: as §7, §9, §8

[7] = tested on: soybean event S3 (vector 17147) expressing SEQ ID NO:24; assay: herbicide spray test on soybean events; type: in vivo; details: event S3/SEQ#24, V2 growth stage, 14 DAT, average of n=7
Excerpt: as §7, §9, §8

[8] = tested on: soybean event 2 (vector 15764) expressing SEQ ID NO:14; assay: herbicide spray test on soybean events; type: in vivo; details: event 2/SEQ#14, V2 growth stage, 14 DAT, average of n=7
Excerpt: as §7, §9, §8

[9] = tested on: soybean event 1 (vector 15764) expressing SEQ ID NO:14; assay: herbicide spray test on soybean events; type: in vivo; details: event 1/SEQ#14, V2 growth stage, 14 DAT, average of n=7
Excerpt: as §7, §9, §8

[10] = tested on: soybean event S8 (vector 17147) expressing SEQ ID NO:24; assay: herbicide spray test on soybean events; type: in vivo; details: event S8/SEQ#24, V2 growth stage, 14 DAT, average of n=7
Excerpt: as §7, §9, §8

[11] = tested on: tobacco plants expressing HPPD SEQ ID NO:24; assay: herbicide spray test on transgenic tobacco; type: in vivo; details: 13 DAT
[12] = tested on: HPPD SEQ ID NO:26; assay: biochemical; type: binding, Avena sativa; details: off rate, FIGS. 4A-4C
Description: as §1
For example, on rates were measured by, at zero time, adding ˜60 pmoles HPPD to 50 mM BisTrisPropane buffer at pH7.0 and at 25° C. containing 25 mM Na ascorbate, 4 μg/ml bovine catalase (Sigma, St. Louis, Mo.) and an excess (˜300 pmoles) of ^14C inhibitor in a total assay volume of 425 μl and, at various time points (0-180 s), quenching the radiolabel binding reaction by addition and rapid mixing of 100 μl ‘cold’ 1 mM structure A. Protein samples quenched at different times were then exchanged into 50 mM BisTrisPropane buffer at pH 7.0 containing 0.1M KCl by rapid chromatography down a NAP5 G25 Sephadex column (GE Healthcare Ltd, Buckinghamshire UK) and the amount of ^14C bound to protein fractions quantified in Optiphase scintillant using a Tri-Carb 2900TR scintillation counter (Perkin Elmer, Wellesley, Mass.). The data were fit according to the scheme below in order to derive the value of the apparent second order rate constant, k2, governing the association rate of enzyme and radiolabelled inhibitor. […]

[13] = tested on: G408A mutant of HPPD SEQ ID NO:14; assay: time course of inhibition of enzyme activity; type: biochemical, Avena sativa
[14] = tested on: tobacco plants expressing HPPD SEQ ID NO:14; assay: herbicide spray test on transgenic tobacco; type: in vivo; details: 13 DAT
[15] = tested on: control SEQ ID NO:14 HPPD; assay: time course of inhibition of enzyme activity, control enzyme; type: biochemical, Avena sativa; details: artifact of the method due to fast off rate during the 150 s assay
[16] = tested on: E. coli cells expressing mutant G408A; details: 25 ppm sulcotrione
Description: (§10) Cells were grown from a 10% starting inoculum into 0.5 ml of L-broth containing 50 μg of kanamycin ml^−1 in […] for 48-96 h at 15° C. Typically pyomelanin colour in the medium was read (at 430 nm) after ˜72 h.

[17] = tested on: E. coli BL21 cells expressing HPPD SEQ ID NO:24; type: cell-based; details: 20 ppm sulcotrione (data not shown)
Description: as §10

[18] = 300 g/ha, smaller-sized population
[19] = 500 g/ha, larger-sized population

HPPD SEQ ID NO:14, sequence (A0ACD5V6K6 entry or part of it DEL109-109): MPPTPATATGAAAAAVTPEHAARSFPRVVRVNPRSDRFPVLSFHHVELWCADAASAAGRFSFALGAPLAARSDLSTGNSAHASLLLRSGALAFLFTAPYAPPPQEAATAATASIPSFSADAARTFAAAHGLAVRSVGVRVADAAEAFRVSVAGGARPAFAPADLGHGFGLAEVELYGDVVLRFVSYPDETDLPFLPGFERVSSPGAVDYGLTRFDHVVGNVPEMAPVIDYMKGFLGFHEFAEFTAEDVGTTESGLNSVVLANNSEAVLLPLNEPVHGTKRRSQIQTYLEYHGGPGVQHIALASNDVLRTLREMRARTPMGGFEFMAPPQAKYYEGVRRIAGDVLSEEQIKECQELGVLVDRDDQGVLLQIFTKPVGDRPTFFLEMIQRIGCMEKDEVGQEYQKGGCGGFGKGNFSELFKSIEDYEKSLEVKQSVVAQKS
HPPD SEQ ID NO:24, sequence (A0ACD5V6K6 entry or part of it DEL109-109/L359M): as the sequence (A0ACD5V6K6 entry or part of it DEL109-109) above, with L358M counted along it

SMILES: CS(=O)(=O)c1ccc(C(=O)C2C(=O)CCCC2=O)c(Cl)c1COCC(F)(F)F [E, tembotrione]
- SEQ ID NO:24 superior to SEQ ID NO:14 (in vitro, in particular off rate data) ([1]; relative to SEQ ID NO:14): neutral
- Kd [2]: 0.321 nM
- Off rate k1 ([2]; 25° C., indirect radiochemical method, average and individual experiments): 5.5e-05 s⁻¹ and 2.85e-05 s⁻¹
- Kd/Km ratio ([2]; HPPD SEQ ID NO:14): 0.000059
- koff ([2]; read-out: Off rate k1, 25° C., indirect radiochemical method, average and individual experiments): 4.17e-05 s⁻¹
- kon ([2]; read-out: On rate k2): 130000 M⁻¹ s⁻¹
- % dam. ([3]; E 368 g/ha): 84.3%
- % dam. ([4]; E 368 g/ha): 39.3%
- % dam. ([5]; E 368 g/ha): 41.4%
- % dam. ([6]; E 368 g/ha): 97.1%
- % dam. ([7]; E 368 g/ha): 51.4%
- % dam. ([8]; E 368 g/ha): 52.1%
- % dam. ([9]; E 368 g/ha): 36.4%
- % dam. ([10]; E 368 g/ha): 80%

SMILES: CS(=O)(=O)c1cc(C(F)(F)F)ccc1C(=O)c1cnoc1C1CC1 [IFT, isoxaflutole]
- SEQ ID NO:24 superior to SEQ ID NO:14 (in vitro, in particular off rate data) [1]: 2.3 fold
- % dam. ([3]; IFT 420 g/ha): 96.1%
- % dam. ([4]; IFT 420 g/ha): 19.3%
- % dam. ([5]; IFT 420 g/ha): 20.7%
- % dam. ([6]; IFT 420 g/ha): 40%
- % dam. ([7]; IFT 420 g/ha): 30%
- % dam. ([8]; IFT 420 g/ha): 42.5%
- % dam. ([9]; IFT 420 g/ha): 26.4%
- % dam. ([10]; IFT 420 g/ha): 31.3%

SMILES: CS(=O)(=O)c1ccc(C(=O)C2C(=O)CCCC2=O)c([N+](=O)[O-])c1 [Structure B, mesotrione]
- plants exhibiting visible herbicide damage (number of plants) [11, 18]: 2 of 28
- plants exhibiting symptoms of herbicide damage [11, 19]: 10%
- plants exhibiting symptoms of herbicide damage (number of plants) [11, 19]: 4 of 38
- % dam. ([3]; B 420 g/ha): 82.9%
- % dam. ([3]; B 840 g/ha): 83.6%
- dissociation from HPPD SEQ ID NO:26 compared with HPPD SEQ ID NO:24 [12]: about twice as fast
- % dam. ([4]; B 420 g/ha): 8.3%
- % dam. ([4]; B 840 g/ha): 5.3%
- % dam. ([5]; B 420 g/ha): 10.6%
- % dam. ([5]; B 840 g/ha): 6.9%
- % dam. ([6]; B 420 g/ha): 15.7%
- % dam. ([6]; B 840 g/ha): 25%
- % dam. ([7]; B 420 g/ha): 15.3%
- % dam. ([7]; B 840 g/ha): 15.3%
- % dam. ([8]; B 420 g/ha): 20.7%
- % dam. ([8]; B 840 g/ha): 22.1%
- % dam. ([9]; B 420 g/ha): 11.4%
- % dam. ([9]; B 840 g/ha): 9.3%
- % dam. ([10]; B 420 g/ha): 18.6%
- % dam. ([10]; B 840 g/ha): 19.3%
- residual activity ([13]; 0.6 μM B, enzyme about 75 nM, incubation up to 260 s, inhibition levelled off): about 35%
- radiochemically determined off rate compared with control SEQ ID NO:14 HPPD ([13]; ice temperature): indistinguishable
- extent of inhibition compared with the control enzyme ([13]; inhibitor at 0.15 or 0.6 μM): to a lesser extent
- plants exhibiting visible herbicide damage (number of plants) [14, 18]: 4 of 26
- plants exhibiting damage [14, 19]: 27%
- residual activity [15]: ~8%

SMILES: CS(=O)(=O)c1ccc(C(=O)C2C(=O)CCCC2=O)c(Cl)c1 [sulc, sulcotrione]
- resistance in pyomelanin assay [16]: resistance relative to HPPD SEQ ID NO:14
- tolerance in pyomelanin assay [17]: enhanced tolerance

Reference: patent US9175305B2, “Mutant hydroxyphenylpyruvate dioxygenase polypeptides and methods of use” (Syngenta Participations AG, priority 2009, dated 2015)
